Test results taken from PMC4858680, “A platinum-based hybrid drug design approach to circumvent acquired resistance to molecular targeted tyrosine kinase inhibitors” (Scientific Reports, 2016).

Columns and labels:
Details in all cases: 10 μM
EPHA1 = molecular target: T1, EPHA1 (Homo sapiens, UniProt P21709)
T1 sequence (P21709 26-976): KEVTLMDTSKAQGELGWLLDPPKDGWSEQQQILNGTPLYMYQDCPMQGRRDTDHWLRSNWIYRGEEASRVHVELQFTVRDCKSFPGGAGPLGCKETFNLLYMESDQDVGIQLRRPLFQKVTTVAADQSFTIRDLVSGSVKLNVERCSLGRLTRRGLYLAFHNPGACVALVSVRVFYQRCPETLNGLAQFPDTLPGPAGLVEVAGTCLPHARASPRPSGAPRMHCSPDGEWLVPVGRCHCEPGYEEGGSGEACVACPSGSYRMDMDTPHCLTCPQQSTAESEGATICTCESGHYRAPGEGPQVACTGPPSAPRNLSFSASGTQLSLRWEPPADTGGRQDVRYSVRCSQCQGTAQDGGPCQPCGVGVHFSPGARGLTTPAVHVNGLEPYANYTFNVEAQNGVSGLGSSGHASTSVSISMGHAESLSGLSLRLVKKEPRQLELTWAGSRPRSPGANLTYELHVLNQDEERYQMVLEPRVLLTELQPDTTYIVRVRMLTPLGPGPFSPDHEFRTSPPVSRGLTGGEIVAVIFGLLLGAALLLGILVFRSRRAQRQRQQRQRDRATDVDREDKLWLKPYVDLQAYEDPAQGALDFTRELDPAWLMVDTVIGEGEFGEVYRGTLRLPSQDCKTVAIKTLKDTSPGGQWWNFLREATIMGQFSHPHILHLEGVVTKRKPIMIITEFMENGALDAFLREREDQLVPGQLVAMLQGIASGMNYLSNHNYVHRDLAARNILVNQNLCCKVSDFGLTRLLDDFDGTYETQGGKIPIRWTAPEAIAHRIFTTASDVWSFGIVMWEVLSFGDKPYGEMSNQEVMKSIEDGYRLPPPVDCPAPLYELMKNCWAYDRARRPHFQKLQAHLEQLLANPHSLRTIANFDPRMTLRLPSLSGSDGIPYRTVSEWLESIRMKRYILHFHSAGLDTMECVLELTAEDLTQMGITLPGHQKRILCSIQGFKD

EPHB1 = molecular target: T2, EPHB1 (Homo sapiens, UniProt P54762)
T2 sequence (P54762 18-984): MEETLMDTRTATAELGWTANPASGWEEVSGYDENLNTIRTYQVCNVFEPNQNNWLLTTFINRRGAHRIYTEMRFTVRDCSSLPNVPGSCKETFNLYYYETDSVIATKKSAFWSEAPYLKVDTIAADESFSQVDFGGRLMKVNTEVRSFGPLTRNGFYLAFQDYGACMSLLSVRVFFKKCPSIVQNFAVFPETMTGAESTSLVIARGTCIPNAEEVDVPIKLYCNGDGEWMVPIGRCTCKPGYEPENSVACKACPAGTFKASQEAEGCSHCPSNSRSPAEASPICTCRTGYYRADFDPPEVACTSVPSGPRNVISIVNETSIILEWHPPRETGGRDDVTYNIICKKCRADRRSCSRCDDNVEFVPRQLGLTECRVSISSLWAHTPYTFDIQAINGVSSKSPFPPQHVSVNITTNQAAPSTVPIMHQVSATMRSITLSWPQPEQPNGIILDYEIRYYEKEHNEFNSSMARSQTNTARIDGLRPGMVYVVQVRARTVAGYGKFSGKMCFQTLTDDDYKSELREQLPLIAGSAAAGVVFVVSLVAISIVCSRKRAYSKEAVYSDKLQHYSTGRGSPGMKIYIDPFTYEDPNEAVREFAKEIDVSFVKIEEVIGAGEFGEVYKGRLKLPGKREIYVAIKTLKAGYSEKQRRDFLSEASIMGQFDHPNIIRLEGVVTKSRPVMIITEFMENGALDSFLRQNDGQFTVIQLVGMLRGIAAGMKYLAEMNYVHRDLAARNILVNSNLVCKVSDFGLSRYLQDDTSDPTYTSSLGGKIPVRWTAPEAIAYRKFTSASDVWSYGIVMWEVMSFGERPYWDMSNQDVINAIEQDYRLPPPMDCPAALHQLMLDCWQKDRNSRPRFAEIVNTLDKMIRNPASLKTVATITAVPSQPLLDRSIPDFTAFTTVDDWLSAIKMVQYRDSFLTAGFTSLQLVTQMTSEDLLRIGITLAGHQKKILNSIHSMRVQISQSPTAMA

EPHB4 = molecular target: T3, EPHB4 (Homo sapiens, UniProt P54760)
T3 sequence (P54760 16-987): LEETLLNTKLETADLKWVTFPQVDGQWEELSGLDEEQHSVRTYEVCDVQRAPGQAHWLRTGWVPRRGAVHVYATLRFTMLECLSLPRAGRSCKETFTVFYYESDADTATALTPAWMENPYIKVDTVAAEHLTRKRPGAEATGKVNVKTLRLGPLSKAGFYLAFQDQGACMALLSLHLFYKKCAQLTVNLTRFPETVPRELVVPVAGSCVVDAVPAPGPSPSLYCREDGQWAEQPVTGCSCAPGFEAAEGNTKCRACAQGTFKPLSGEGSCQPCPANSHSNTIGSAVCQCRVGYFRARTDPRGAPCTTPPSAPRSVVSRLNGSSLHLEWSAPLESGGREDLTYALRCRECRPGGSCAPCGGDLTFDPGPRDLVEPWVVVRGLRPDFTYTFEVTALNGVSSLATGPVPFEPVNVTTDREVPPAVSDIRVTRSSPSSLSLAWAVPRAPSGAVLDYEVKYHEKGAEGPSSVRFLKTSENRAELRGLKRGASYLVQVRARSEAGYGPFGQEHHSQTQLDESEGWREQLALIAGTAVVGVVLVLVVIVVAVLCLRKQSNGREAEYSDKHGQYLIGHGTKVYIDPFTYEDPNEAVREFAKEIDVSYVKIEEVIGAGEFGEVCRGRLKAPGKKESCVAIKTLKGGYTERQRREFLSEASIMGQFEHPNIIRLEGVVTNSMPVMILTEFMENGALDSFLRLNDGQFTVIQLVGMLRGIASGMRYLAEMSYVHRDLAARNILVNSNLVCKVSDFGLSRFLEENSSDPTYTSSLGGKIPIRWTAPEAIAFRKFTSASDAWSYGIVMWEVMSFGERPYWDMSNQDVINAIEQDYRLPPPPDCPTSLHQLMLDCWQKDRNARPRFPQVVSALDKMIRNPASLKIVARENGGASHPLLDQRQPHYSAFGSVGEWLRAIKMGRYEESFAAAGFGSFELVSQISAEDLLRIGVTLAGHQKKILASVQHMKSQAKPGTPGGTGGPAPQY

FGFR1 = FGFR1 (Homo sapiens, UniProt P11362)
KIT(V559D) = KIT(V559D) (Homo sapiens, UniProt P10721, V559D)
TRKC = TRKC (Homo sapiens, UniProt Q16288)
Chain of TRKC (Q16288 32-839): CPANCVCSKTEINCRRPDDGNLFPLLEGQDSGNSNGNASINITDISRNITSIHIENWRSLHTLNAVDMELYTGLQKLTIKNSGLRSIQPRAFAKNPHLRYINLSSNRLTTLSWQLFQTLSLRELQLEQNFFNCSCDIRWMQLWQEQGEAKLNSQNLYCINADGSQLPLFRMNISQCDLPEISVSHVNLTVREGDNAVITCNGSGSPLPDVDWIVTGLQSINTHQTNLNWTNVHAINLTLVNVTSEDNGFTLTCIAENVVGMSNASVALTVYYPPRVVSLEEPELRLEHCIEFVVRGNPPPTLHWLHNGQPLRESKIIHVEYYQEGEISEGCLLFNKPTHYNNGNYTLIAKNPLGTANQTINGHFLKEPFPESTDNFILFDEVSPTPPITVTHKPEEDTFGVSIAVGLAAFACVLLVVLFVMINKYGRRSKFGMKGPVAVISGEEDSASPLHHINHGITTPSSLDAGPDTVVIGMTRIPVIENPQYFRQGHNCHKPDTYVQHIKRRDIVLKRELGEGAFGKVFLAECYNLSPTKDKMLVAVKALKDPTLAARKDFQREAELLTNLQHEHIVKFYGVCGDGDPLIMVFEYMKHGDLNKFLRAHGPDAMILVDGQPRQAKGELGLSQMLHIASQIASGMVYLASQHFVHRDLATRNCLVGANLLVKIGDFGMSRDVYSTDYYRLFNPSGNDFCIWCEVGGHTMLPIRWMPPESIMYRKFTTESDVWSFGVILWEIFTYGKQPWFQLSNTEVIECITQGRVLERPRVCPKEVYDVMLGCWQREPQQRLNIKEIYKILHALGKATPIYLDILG

Chain of FGFR1 (P11362 22-822): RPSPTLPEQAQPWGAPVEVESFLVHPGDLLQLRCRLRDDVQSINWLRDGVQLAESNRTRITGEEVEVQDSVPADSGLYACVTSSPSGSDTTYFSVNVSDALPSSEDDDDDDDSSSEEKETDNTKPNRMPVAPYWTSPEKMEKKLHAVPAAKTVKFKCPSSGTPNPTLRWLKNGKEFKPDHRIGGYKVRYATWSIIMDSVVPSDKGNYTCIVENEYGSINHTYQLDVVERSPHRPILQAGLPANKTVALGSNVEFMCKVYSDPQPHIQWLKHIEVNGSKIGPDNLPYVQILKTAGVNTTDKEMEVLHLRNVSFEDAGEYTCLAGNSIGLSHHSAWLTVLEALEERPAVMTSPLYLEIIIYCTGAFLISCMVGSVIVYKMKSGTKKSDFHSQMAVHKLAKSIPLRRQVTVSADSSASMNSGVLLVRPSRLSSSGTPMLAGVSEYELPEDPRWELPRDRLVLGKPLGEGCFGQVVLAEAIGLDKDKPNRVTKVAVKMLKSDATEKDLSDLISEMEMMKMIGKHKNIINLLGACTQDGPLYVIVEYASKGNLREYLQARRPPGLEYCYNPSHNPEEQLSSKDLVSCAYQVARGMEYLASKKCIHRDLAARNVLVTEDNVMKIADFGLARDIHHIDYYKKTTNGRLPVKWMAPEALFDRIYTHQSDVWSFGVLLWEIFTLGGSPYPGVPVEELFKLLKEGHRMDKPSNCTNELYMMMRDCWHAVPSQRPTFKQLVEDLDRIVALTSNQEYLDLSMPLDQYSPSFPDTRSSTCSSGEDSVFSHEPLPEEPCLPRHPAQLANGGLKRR
Chain of KIT(V559D) (P10721 26-976 V559D): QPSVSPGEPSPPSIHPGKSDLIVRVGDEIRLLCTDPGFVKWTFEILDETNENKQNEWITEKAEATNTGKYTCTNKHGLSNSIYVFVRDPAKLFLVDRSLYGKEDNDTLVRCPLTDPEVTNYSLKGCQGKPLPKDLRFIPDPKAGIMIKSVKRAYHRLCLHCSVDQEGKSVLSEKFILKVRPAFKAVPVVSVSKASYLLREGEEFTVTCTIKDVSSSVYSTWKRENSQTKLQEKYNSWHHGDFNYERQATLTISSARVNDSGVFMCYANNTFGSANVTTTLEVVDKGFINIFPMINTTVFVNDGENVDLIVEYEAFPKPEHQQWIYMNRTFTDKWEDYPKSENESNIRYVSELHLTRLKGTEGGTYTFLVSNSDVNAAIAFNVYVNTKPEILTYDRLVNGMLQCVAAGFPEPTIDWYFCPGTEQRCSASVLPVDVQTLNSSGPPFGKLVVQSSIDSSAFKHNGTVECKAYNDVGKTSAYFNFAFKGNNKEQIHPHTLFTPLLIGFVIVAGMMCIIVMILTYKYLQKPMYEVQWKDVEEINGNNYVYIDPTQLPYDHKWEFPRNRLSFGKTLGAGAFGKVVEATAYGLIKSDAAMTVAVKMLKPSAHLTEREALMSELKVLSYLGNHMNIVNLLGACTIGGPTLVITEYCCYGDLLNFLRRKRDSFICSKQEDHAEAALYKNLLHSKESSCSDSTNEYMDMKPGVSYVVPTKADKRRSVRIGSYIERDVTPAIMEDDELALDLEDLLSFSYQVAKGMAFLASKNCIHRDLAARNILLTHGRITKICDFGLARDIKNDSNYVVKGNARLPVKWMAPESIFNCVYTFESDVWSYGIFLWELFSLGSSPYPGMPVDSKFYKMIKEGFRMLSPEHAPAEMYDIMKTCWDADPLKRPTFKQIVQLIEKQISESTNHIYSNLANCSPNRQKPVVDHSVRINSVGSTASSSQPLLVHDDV

## C#Cc1cccc(Nc2c3cc(OCCOC)c(OCCOC)cc3nc[n+]2[Pt@SP2-2]([NH3+])([NH3+])[Cl])c1 [2a, cisplatin-erlotinib]
EPHA1
  Percent control: 73%
EPHB1
  Percent control: 90%
EPHB4
  Percent control: 91%
FGFR1
  Percent control: 77%
KIT(V559D)
  Percent control: 88%
TRKC
  Percent control: 93%

## COc1cc2c(Nc3ccc(Br)cc3F)[n+]([Pt-2]3([Cl])[NH2+]C4CCCCC4[NH2+]3)cnc2cc1OCC1CCN(C)CC1 (stereo not shown) [3b, oxaliplatin-vandetanib]
EPHA1
  Percent control: 11%
EPHB1
  Percent control: 31%
EPHB4
  Percent control: 35%
KIT(V559D)
  Percent control: 0.5%
TRKC
  Percent control: 98%

## Cc1ccc(NC(=O)c2ccc(CN3CCN(C)CC3)cc2)cc1Nc1nccc(-c2cccnc2)[n+]1[Pt-2]1([Cl])[NH2+]C2CCCCC2[NH2+]1 (stereo not shown) [1b, oxaliplatin-imatinib]
EPHA1
  Percent control: 86%
EPHB1
  Percent control: 94%
EPHB4
  Percent control: 100%
FGFR1
  Percent control: 96%
KIT(V559D)
  Percent control: 0%
TRKC
  Percent control: 100%

## Cc1ccc(NC(=O)c2ccc(CN3CCN(C)CC3)cc2)cc1Nc1nccc(-c2cccnc2)n1 [Imatinib, reference compound]
EPHA1
  Percent control: 100%
EPHB1
  Percent control: 100%
EPHB4
  Percent control: 100%
FGFR1
  Percent control: 100%
TRKC
  Percent control: 100%
